Reference: patent US11697646B2, “Triazole N-linked carbamoyl cyclohexyl acids as LPA antagonists” (BRISTOL-MYERS SQUIBB COMPANY, priority 2017, dated 2023)
Like-named read-outs stand apart in the source and are kept apart here.

Target: T1, human LPA1 (Homo sapiens, UniProt Q92633)
T1 construct: expressed in transfected cells; host or cells: Chinese hamster ovary (CHO) cells
Assay: LPA1 functional antagonist assay (calcium flux)
Format: cell-based
Settings: read-out: hLPA1 IC50
Procedure: The effectiveness of compounds of the present invention as LPA1 inhibitors can be determined in an LPA1 functional antagonist assay as follows:
The cells were then equilibrated to room temperature for 30 minutes before the assay. […] IC50 values were determined by fitting data to a 4-parameter logistic equation (GraphPad Prism, San Diego Calif.).

[1] = CHO cells overexpressing human LPA1, calcium flux induced by 10 nM LPA
[2] = human LPA1 functional antagonist assay

T1 sequence (Q92633 whole entry): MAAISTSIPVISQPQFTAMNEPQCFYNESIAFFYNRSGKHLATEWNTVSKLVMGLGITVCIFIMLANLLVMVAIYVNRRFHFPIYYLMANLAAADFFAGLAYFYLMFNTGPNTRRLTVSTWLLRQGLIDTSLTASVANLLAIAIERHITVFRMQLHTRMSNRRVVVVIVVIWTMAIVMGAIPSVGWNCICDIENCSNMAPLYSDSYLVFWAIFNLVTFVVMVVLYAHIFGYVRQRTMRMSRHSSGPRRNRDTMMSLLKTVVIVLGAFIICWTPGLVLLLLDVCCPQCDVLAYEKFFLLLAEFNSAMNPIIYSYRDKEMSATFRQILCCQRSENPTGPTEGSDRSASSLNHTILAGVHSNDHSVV

CC(COC(=O)NCc1c(-c2ccc(O[C@H]3CCC[C@H](C(=O)O)C3)cn2)nnn1C)CC(F)(F)F (mixture of isomers) [Example 31, (1S,3S)-3-((6-(1-methyl-5-((((4,4,4-trifluoro-2-methylbutoxy)carbonyl)amino)methyl)-1H-1,2,3-triazol-4-yl)pyridin-3-yl)oxy)cyclohexanecarboxylic acid]
IC50 [1]: 0.102 µM

Cc1nc(-c2nnn(C)c2CNC(=O)OCC(C)CC(F)(F)F)ccc1O[C@H]1CCC[C@H](C(=O)O)C1 (mixture of isomers) [Example 32, (1S,3S)-3-((2-methyl-6-(1-methyl-5-((((4,4,4-trifluoro-2-methylbutoxy)carbonyl)amino)methyl)-1H-1,2,3-triazol-4-yl)pyridin-3-yl)oxy)cyclo-hexane-1-carboxylic acid]
IC50 [1]: 0.069 µM

Cn1nnc(-c2ccc(O[C@H]3CCC[C@H](C(=O)O)C3)cn2)c1CNC(=O)OCC1CC(F)C1 (mixture of isomers) [Example 47, (1S,3S)-3-((6-(5-(((((3-fluorocyclobutyl)methoxy)carbonyl)amino)methyl)-1-methyl-1H-1,2,3-triazol-4-yl)pyridin-3-yl)oxy)cyclohexane-1-carboxylic acid]
IC50 [1]: 0.854 µM

Cc1nc(-c2nnn(C)c2CNC(=O)OCC2CC(F)C2)ccc1O[C@H]1CCC[C@H](C(=O)O)C1 (mixture of isomers) [Example 48, (1S,3S)-3-((6-(5-(((((3-fluorocyclobutyl)methoxy)carbonyl)amino)methyl)-1-methyl-1H-1,2,3-triazol-4-yl)-2-methylpyridin-3-yl)oxy)cyclohexane-1-carboxylic acid]
IC50 [1]: 0.048 µM

Cc1nc(-c2nnn(C)c2NC(=O)OC(C)C2CC2)ccc1O[C@H]1CCC[C@H](C(=O)O)C1 (mixture of isomers) [Example 69, (1S,3S)-3-((6-(5-(((1-cyclopropyl-ethoxy)carbonyl)amino)-1-methyl-1H-1,2,3-triazol-4-yl)-2-methyl-pyridin-3-yl)oxy)cyclohexane-1-carboxylic acid]
IC50 [1]: 0.085 µM

CCC(C)CNC(=O)NCc1c(-c2ccc(O[C@H]3CCC[C@H](C(=O)O)C3)c(C)n2)nnn1C (mixture of isomers) [Example 118, (1S,3S)-3-((2-methyl-6-(1-methyl-5-((3-(2-methylbutyl)ureido)methyl)-1H-1,2,3-triazol-4-yl)pyridin-3-yl)oxy)cyclo-hexane-1-carboxylic acid]
IC50 [1]: 0.105 µM

CCCC(NC(=O)NCc1c(-c2ccc(O[C@H]3CCC[C@H](C(=O)O)C3)c(C)n2)nnn1C)c1ccccc1 (mixture of isomers) [Example 119, (1S,3S)-3-((2-methyl-6-(1-methyl-5-((3-(1-phenylbutyl)ureido)methyl)-1H-1,2,3-triazol-4-yl)pyridin-3-yl)oxy)cyclo-hexane-1-carboxylic acid]
IC50 [1]: 0.187 µM

CCC(NC(=O)NCc1c(-c2ccc(O[C@H]3CCC[C@H](C(=O)O)C3)c(C)n2)nnn1C)c1ccccc1 (mixture of isomers) [Example 120, (1S,3S)-3-((2-methyl-6-(1-methyl-5-((3-(1-phenylpropyl)ureido)methyl)-1H-1,2,3-triazol-4-yl)pyridin-3-yl)oxy)cyclo-hexane-1-carboxylic acid]
IC50 [1]: 0.238 µM

Cc1nc(-c2nnn(C)c2CNC(=O)NC(CF)c2ccccc2)ccc1O[C@H]1CCC[C@H](C(=O)O)C1 (mixture of isomers) [Example 121, (1S,3S)-3-((6-(5-((3-(2-fluoro-1-phenyl-ethyl)ureido)methyl)-1-methyl-1H-1,2,3-triazol-4-yl)-2-methylpyridin-3-yl)oxy)cyclohexane-1-carboxylic acid]
IC50 [1]: 0.555 µM

Cc1nc(-c2nnn(C)c2CNC(=O)NC(C)c2ccccc2)ccc1O[C@H]1CCC[C@H](C(=O)O)C1 (mixture of isomers) [Example 129, (1S,3S)-3-((2-methyl-6-(1-methyl-5-((3-(1-phenylethyl)ureido)methyl)-1H-1,2,3-triazol-4-yl)pyridin-3-yl)oxy)cyclo-hexane-1-carboxylic acid]
IC50 [1]: 0.142 µM

CCCC(C)NC(=O)Nc1c(-c2ccc(O[C@H]3CCC[C@H](C(=O)O)C3)c(C)n2)nnn1C (mixture of isomers) [Example 147, (1S,3S)-3-((2-methyl-6-(1-methyl-5-(3-(pentan-2-yl)ureido)-1H-1,2,3-triazol-4-yl)pyridin-3-yl)oxy)cyclo-hexane-1-carboxylic acid]
IC50 [1]: 0.517 µM

Cc1nc(-c2nnn(C)c2CNC(=O)OCC2CC2(F)F)ccc1O[C@H]1CCC[C@H](C(=O)O)C1 (mixture of isomers) [Example 180, (1S,3S)-3-((6-(5-(((((2,2-difluoro-cyclopropyl)methoxy)carbonyl)amino)methyl)-1-methyl-1H-1,2,3-triazol-4-yl)-2-methylpyridin-3-yl)oxy)cyclohexane-1-carboxylic acid (diastereomers at cyclopropyl carbon)]
IC50 [2]: 0.053 µM

Cc1nc(-c2nnn(C)c2CNC(=O)OCC(C)C(F)(F)F)ccc1O[C@H]1CCC[C@H](C(=O)O)C1 (mixture of isomers) [Example 204, (1S,3S)-3((2-methyl-6-(1-methyl-5-((((3,3,3-trifluoro-2-methylpropoxy)carbonyl)amino)methyl)-1H-1,2,3-triazol-4-yl)pyridin-3-yl)oxy)cyclohexane-1-carboxylic acid]
IC50 [2]: 0.096 µM

Cc1nc(-c2nnn(C)c2NC(=O)OCC2CC2C)ccc1O[C@H]1CCC[C@H](C(=O)O)C1 (mixture of isomers) [Example 223, (1S,3S)-3((2-methyl-6-(1-methyl-5-((((2-methylcyclopropyl)methoxy)carbonyl)amino)-1H-1,2,3-triazol-4-yl)pyridin-3-yl)oxy)cyclohexane-1-carboxylic acid (mixture of cyclopropyl diastereomers)]
IC50 [1]: 0.052 µM

Cc1nc(-c2nnn(C)c2CCNC(=O)CC(C)CC(C)(C)C)ccc1O[C@H]1CCC[C@H](C(=O)O)C1 (mixture of isomers) [Example 239, (1S,3S)-3-((2-methyl-6-(1-methyl-5-(2-(3,5,5-trimethylhexanamido)ethyl)-1H-1,2,3-triazol-4-yl)pyridin-3-yl)oxy)cyclohexane-1-carboxylic acid (diastereomeric mixture)]
IC50 [1]: 1.02 µM

CC(C)CCOC(=O)NCc1c(-c2ccc(O[C@@H]3CCC[C@@H](C(=O)O)C3)cc2)nnn1C (racemic) [Example 4, (±)-(trans)-3-(4-(5-((((isopentyloxy)carbonyl)amino)methyl)-1-methyl-1H-1,2,3-triazol-4-yl)phenoxy)cyclohexane-1-carboxylic acid]
IC50 [1]: 0.148 µM

Cn1nnc(-c2ccc(O[C@@H]3CCC[C@@H](C(=O)O)C3)cc2)c1CNC(=O)OCCC1CC1 (racemic) [Example 39, (±)-trans-3-(4-(5-((((2-cyclopropylethoxy)carbonyl)amino)methyl)-1-methyl-1H-1,2,3-triazol-4-yl)phenoxy)cyclohexane-1-carboxylic acid]
IC50 [1]: 0.457 µM

Cn1nnc(-c2ccc(O[C@@H]3CCC[C@@H](C(=O)O)C3)cc2)c1CNC(=O)OCc1ccccc1 (racemic) [Example 40, (±)-trans-3-(4-(5-((((benzyloxy)carbonyl)amino)methyl)-1-methyl-1H-1,2,3-triazol-4-yl)phenoxy)cyclohexane-1-carboxylic acid]
IC50 [1]: 0.664 µM

Cc1nc(-c2nnn(C)c2CNC(=O)OCc2ccccc2)ccc1O[C@@H]1CCC[C@@](F)(C(=O)O)C1 (racemic) [Example 209, (±)-Cis-3-((6-(5-((((benzyloxy)carbonyl)amino)methyl)-1-methyl-1H-1,2,3-triazol-4-yl)-2-methylpyridin-3-yl)oxy)-1-fluorocyclohexanecarboxylic acid]
IC50 [1]: 0.012 µM

Cc1nc(-c2nnn(C)c2CNC(=O)N(C)C(C)C(C)C)ccc1O[C@H]1CCC[C@H](C(=O)O)C1 (single isomer, unassigned) [Example 125]
IC50 [1]: 1.21 µM

Cc1nc(-c2nnn(C)c2CNC(=O)NC(C)C(C)C)ccc1O[C@H]1CCC[C@H](C(=O)O)C1 (single isomer, unassigned) [Example 126]
IC50 [1]: 0.611 µM

Cc1nc(-c2nnn(C)c2CNC(=O)OCC2CC2(F)F)ccc1OC1CCCC(C(=O)O)C1 (single isomer, unassigned) [Example 207]
IC50 [1]: 0.044 µM

Cc1nc(-c2nnn(C)c2CNC(=O)OCc2ccccc2)ccc1O[C@@H]1CCC[C@@](F)(C(=O)O)C1 (single isomer, unassigned) [Example 210]
IC50 [1]: 0.005 µM

Cc1nc(-c2nnn(C)c2CNC(=O)OCc2ccccc2)ccc1O[C@@H]1CCC[C@@](F)(C(=O)O)C1 (single isomer, unassigned) [Example 211]
IC50 [1]: 0.192 µM

Cc1nc(-c2nnn(C)c2CNC(=O)OC[C@H]2C[C@@H]2C)ccc1O[C@H]1CCC[C@H](C(=O)O)C1 (stereo in doubt) [Example 183, (1S,3S)-3((2-methyl-6-(1-methyl-5-(((((trans-2-methylcyclopropyl)methoxy)carbonyl)amino)methyl)-1H-1,2,3-triazol-4-yl)pyridin-3-yl)oxy)cyclohexane-1-carboxylic acid]
IC50 [2]: 0.032 µM

CC[C@H](C)COC(=O)NCc1c(-c2ccc(O[C@H]3CCC[C@H](C(=O)O)C3)c(C)n2)nnn1C [Example 1, (1S,3S)-3-((2-Methyl-6-(1-methyl-5-(((((S)-2-methylbutoxy)carbonyl)amino)methyl)-1H-1,2,3-triazol-4-yl)pyridin-3-yl)oxy)cyclohexanecarboxylic acid]
IC50 [1]: 0.018 µM

CC[C@H](C)COC(=O)N(C)Cc1c(-c2ccc(O[C@H]3CCC[C@H](C(=O)O)C3)c(C)n2)nnn1C [Example 2, (1S,3S)-3-((2-Methyl-6-(1-methyl-5-((methyl(((S)-2-methylbutoxy)carbonyl)amino)methyl)-1H-1,2,3-triazol-4-yl)pyridin-3-yl)oxy)cyclohexanecarboxylic acid]
IC50 [1]: 0.029 µM
